Source: patent publication US20040068014A1 (priority 2001, published 2004)

Assays:
[1] = test system: diarrhea; assay: Inducing effect of diarrhea (rats, oral administration)
[2] = test system: Diclofenac sodium-induced stomach ulcer; assay: Administering time of Ornoprostil and suppression of Diclofenac sodium-induced stomach ulcer; type: in vivo, rat; settings: for Antiulcer coefficient: inhibition ratio/incidence rate; for Incidence rate of ulcer (Number of Examples): rat oral
[3] = test system: glycerol-induced nephropathy; assay: Glycerol-induced nephropathy; type: in vivo, rat; settings: serum 48 hours after glycerol
Description: After weighing SPF/Crj strain maleness rats (9 weeks of ages), they were so divided that average weight of each group might almost be equal. At 48 hours after 50% glycerol (10 ml/kg) (medium: physiological salt solution) was subcutaneously administered to rats deprived water for 48 hours (±2 hour) on […], about 1.5 ml of blood was gathered from the jugular under ether anesthesia. […] Water was supplied to them 2 hour later from administration of glycerol. Those serums were obtained by centrifugal separation (for about 4° C., 3000 rpm, for 15 minutes) of the gathered blood. Urea nitrogen (abbreviated as UN.) (urease·GIDH method) and creatinine (abbreviated as CRE.) (Creatininase·F-DAOS method) in the obtained serum were measured with the biochemistry automated analyzer (AU400 (trade name), Olympus Optical Co., Ltd.).

[4] = OU 0 minutes before Di administering
[5] = OU 5 minutes after Di administering
[6] = OU 5 minutes before Di administering
[7] = OU 10 minutes after Di administering
[8] = OU 10 minutes before Di administering
[9] = OU 30 minutes after Di administering
[10] = OU 30 minutes before Di administering
[11] = OU 60 minutes after Di administering
[12] = OU 60 minutes before Di administering
[13] = GC (subcutis) + OU (10 μg) oral

CCCC[C@H](C)C[C@H](O)/C=C/[C@H]1[C@H](O)CC(=O)[C@@H]1CC(=O)CCCCC(=O)OC [Ornoprostil, 17S, 20-dimethyl-6-keto PGE1 methyl ester]
Dose which generates induced effect of diarrhea [1]: ≥ 0.4 mg/kg | Antiulcer coefficient [2, 4]: 86.9 | Incidence rate of ulcer (Number of Examples) [2, 4]: 7/8 | Antiulcer coefficient [2, 5]: 7.1 | Incidence rate of ulcer (Number of Examples) [2, 5]: 7/8 | Antiulcer coefficient [2, 6]: 100.9 | Incidence rate of ulcer (Number of Examples) [2, 6]: 6/8 | Antiulcer coefficient [2, 7]: 28.8 | Incidence rate of ulcer (Number of Examples) [2, 7]: 8/8 | Antiulcer coefficient [2, 8]: 125.1 | Incidence rate of ulcer (Number of Examples) [2, 8]: 5/8 | Antiulcer coefficient [2, 9]: 16.1 | Incidence rate of ulcer (Number of Examples) [2, 9]: 7/8 | Antiulcer coefficient [2, 10]: 56.2 | Incidence rate of ulcer (Number of Examples) [2, 10]: 7/8 | Antiulcer coefficient [2, 11]: 4.1 | Incidence rate of ulcer (Number of Examples) [2, 11]: 6/8 | Antiulcer coefficient [2, 12]: 97.3 | Incidence rate of ulcer (Number of Examples) [2, 12]: 7/8 | CRE (serum creatinine) ([3]; GC (subcutis) + OU (3 μg) oral): 1.38 mg/dL | UN (serum urea nitrogen) ([3]; GC (subcutis) + OU (3 μg) oral): 89.7 mg/dL | CRE (serum creatinine) [3, 13]: 1.03 mg/dL | UN (serum urea nitrogen) [3, 13]: 79.9 mg/dL

15-deoxy-16-hydroxy-16-methyl-PGE1 methyl ester [Misoprostol]
Number of animals which cause diarrhea/number of laboratory animals ([1]; 50 μg/kg): 0/5 | Number of animals which cause diarrhea/number of laboratory animals ([1]; 100 μg/kg): 1/5
